Patent US20260191933A1, “PHARMACEUTICAL COMBINATIONS AND USES THEREOF” (The University of Melbourne, priority 2022, published 2026)

Columns and labels:
[1] = test system: 12-week HFHS fed obese mice; test: I.C.V. fluorosamine in obese mice: glucose tolerance and hyperinsulinemic-euglycemic clamps; format: in vivo, C57BL/6J mice
Description: For hyperinsulinemic-euglycemic clamps, mice were anesthetised under isoflurane and the right jugular vein was catheterised for infusions, as described previously by Dodd et al., 2018. Catheters were attached to an implant button (BMSW25, RWD Life Sciences, Shenzhen, China). Implant buttons were capped allowing for group mousing of mice and catheters were kept patent by flushing daily with 40 μL saline containing 200 units/mL heparin. On the day of the experiment, food was removed at 7:00 A.M. After 3.5 h fasting, a primed (1 min, 1.25 uCi/min) continuous infusion (0.05 uCi/min) of [3-3H]glucose (NET331A001MC, PerkinElmer, MA) was administered to measure whole-body glucose turnover, as described previously by Dodd et al., 2018. […]
Metabolic measurements were undertaken in the Melbourne Mouse Metabolic Phenotyping Platform (The University of Melbourne, Australia). […] The areas under glucose excursion curves were determined and expressed as mmol/l×min. Fasted (12 h fast) plasma insulin or glucose levels were determined using a Rat/Mouse Insulin ELISA (EZRMI-13K, Merck Millipore, CA) or an Accu-Check glucometer respectively. The HOMA-IR was calculated using the equation [(glucose×insulin)/405]. Adiposity was measured using TD-NMR minispec (Bruker Optics Inc., Billerica, MA). […]

[2] = test system: GLP-1 receptor signalling (pERK) in the ARC; test: I.C.V. PZ6005 and/or S.C. liraglutide: ARC pERK +ve. cells after liraglutide; format: in vivo, C57BL/6j mice; conditions: after 28-day treatment; compared to controls and liraglutide alone
CSPG-ECM (neurofibrosis) = test: I.C.V. fluorosamine in obese mice: CSPG-ECM expression (WFA immunostaining); format: in vivo, C57BL/6J mice
Description: All image quantification was performed in Image J (NIH) software (NIH, MA). Raw images underwent background subtraction using a rolling ball algorithm to minimize background and any potential variance in tissue autofluorescence. To quantify area and intensity of the CSPG-ECM within each brain region (ARC, VMH or RSG cortex) images were thresholded and binarized to create a region of interest (ROI) mask of only the CSPG-ECM. For each brain area, CSPG-ECM ROI area (μm^2) and intensity (sum of all pixel intensities within the ROI) was calculated. This process was automated to minimise bias and to account for differences in brain nuclei size across multiple images. Brain nuclei were defined in accordance with the Paxinos and Franklin mouse brain atlas (http://labs.gaidi.ca/mouse-brain-atlas/). The area and intensity of CSPG-ECM within each region was normalised to the respective control.
Under isoflurane anaesthetic 12-week HFHS fed C57BL/6J or AgRP-Cas9 mice were implanted stereotaxically with guide cannulas into the right lateral ventricle (0.2 mm posterior, 1.0 mm lateral from bregma). Guide cannula was positioned 1.3 mm above the injection site (1 mm ventral to the surface of the skull). AgRP-Cas9 mice were treated with either AAV-gScrambled or AAV-gIR and underwent guide cannula placement 7 days post AAV administration. Mice were administered I.C.V. vehicle (ddH2O), fluorosamine (100 μg/animal/day or 250 μgl/animal/day) in a volume of 2 μl/animal and all compounds were delivered approximately 1 h before lights off (7 pm).

CC(=O)NC1C(OC(C)=O)OC(COC(C)=O)[C@@H](F)C1OC(C)=O (stereo partly drawn) [PZ6005, per-O-acetylated-4-F-N-acetylglucosamine]
whole-body insulin sensitivity (GIR) ([1]; hyperinsulinemic-euglycemic clamps, weight matched obese mice, daily for 3 days I.C.V.): enhancement
glucose tolerance ([1]; obese mice, I.C.V. for 10 days): improved glucose tolerance
ARC pERK +ve. cells [2]: markedly increased
CSPG-ECM expression in the habenula (CSPG-ECM (neurofibrosis); I.C.V., at the highest dose): only partially attenuated
neurofibrosis within the ARC (WFA immunostaining) (CSPG-ECM (neurofibrosis); obese mice, I.C.V. daily for 10 days): significantly attenuated
CSPG-ECM in other brain areas such as the RSG cortex (CSPG-ECM (neurofibrosis); obese mice, I.C.V. for 10 days): did not reduce
